How the values were obtained:
[1] = tested on: large (Lg) crabgrass; assay: Test A preemergence; format: in vivo, Digitaria sanguinalis; details: for Crabgrass, Large plant response rating: 500 g ai/ha
Procedure, shortened: (§1)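 Scoring: eye-based comparison with untreated controls, 0 for no effect through 100 for complete control, at about day 10. Treatments: directed soil spray preemergence; foliar spray postemergence on 2–10 cm plants at the one- to two-leaf stage. Medium: loam soil with sand.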

[2] = tested on: velvetleaf; assay: Test A preemergence; format: in vivo, Abutilon theophrasti; details: for Velvetleaf plant response rating: 500 g ai/ha
Procedure, shortened: as §1

[3] = tested on: wheat; assay: Test A preemergence; format: in vivo, Triticum aestivum; details: for Wheat plant response rating: 500 g ai/ha
Procedure, shortened: as §1

[4] = tested on: large (Lg) crabgrass; assay: Test A postemergence; format: in vivo, Digitaria sanguinalis
Procedure, shortened: as §1

[5] = tested on: giant foxtail; assay: Test A postemergence; format: in vivo, Setaria faberii
Procedure, shortened: as §1

[6] = tested on: velvetleaf; assay: Test A postemergence; format: in vivo, Abutilon theophrasti
Procedure, shortened: as §1

[7] = tested on: wheat; assay: Test A postemergence; format: in vivo, Triticum aestivum
Procedure, shortened: as §1

[8] = tested on: rice; assay: Test B flooded paddy test; format: in vivo, Oryza sativa; details: Flood, 250 g ai/ha; 0 to 100 scale where 0 is no effect and 100 is complete control
Procedure, shortened: (§2)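 Plants were grown to the 2-leaf stage, then pots were flooded to 3 cm above the soil and compounds were applied directly into the paddy water. That depth was held throughout, and after 13 to 15 days in the greenhouse injury was rated visually against controls on a 0–100 scale (0 no effect, 100 complete control).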

[9] = tested on: Heteranthera limosa; assay: Test B flooded paddy test; format: in vivo; details: Flood, 250 g ai/ha; 0 to 100 scale where 0 is no effect and 100 is complete control
Procedure, shortened: as §2

[10] = tested on: lambsquarters; assay: Test C postemergence; format: in vivo, Chenopodium album; details: for Plant response rating, Lambsquarters / Lambsquarters plant response rating: scale 0 to 100 (0 no effect, 100 complete control)
Procedure, shortened: (§3)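 Preemergence: seeds sown in a loam soil–sand blend and sprayed with test chemical in a non-phytotoxic solvent mixture containing surfactant. Postemergence: plants at 2 to 18 cm (1- to 4-leaf stage) in peat-based medium, treated with the same formulation. Greenhouse 13 to 15 days, then visual rating 0 (no effect) to 100 (complete control).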

[11] = tested on: morningglory; assay: Test C postemergence; format: in vivo, Ipomoea coccinea; details: for Plant response rating, Morningglory / Morningglory plant response rating: scale 0 to 100 (0 no effect, 100 complete control)
Procedure, shortened: as §3

[12] = tested on: pigweed; assay: Test C postemergence; format: in vivo, Amaranthus retroflexus; details: for Plant response rating, Pigweed / Pigweed plant response rating: scale 0 to 100 (0 no effect, 100 complete control)
Procedure, shortened: as §3

[13] = tested on: soybean; assay: Test C postemergence; format: in vivo, Glycine max; details: for Plant response rating, Soybean / Soybean plant response rating: scale 0 to 100 (0 no effect, 100 complete control)
Procedure, shortened: as §3

[14] = tested on: oilseed rape; assay: Test C postemergence; format: in vivo, Brassica napus; details: for Plant response rating, Oilseed Rape / Oilseed Rape plant response rating: scale 0 to 100 (0 no effect, 100 complete control)
Procedure, shortened: as §3

[15] = tested on: kochia; assay: Test C postemergence; format: in vivo, Kochia scoparia; details: for Plant response rating, Kochia / Kochia plant response rating: scale 0 to 100 (0 no effect, 100 complete control)
Procedure, shortened: as §3

[16] = tested on: velvetleaf; assay: Test C postemergence; format: in vivo, Abutilon theophrasti; details: for Plant response rating, Velvetleaf / Velvetleaf plant response rating: scale 0 to 100 (0 no effect, 100 complete control)
Procedure, shortened: as §3

[17] = 125 g ai/ha, 0 to 100 scale where 0 is no effect and 100 is complete control
[18] = 0 to 100 scale, 0 no effect, 100 complete control, approx. 10 days
[19] = 500 g ai/ha, 0 to 100 scale, 0 no effect, 100 complete control
[20] = Postemergence, 31 g ai/ha, 13 to 15 days
[21] = 0 to 100 scale where 0 is no effect and 100 is complete control
[22] = 500 g ai/ha, 0 to 100 scale where 0 is no effect and 100 is complete control
[23] = 16 g ai/ha, postemergence, 0 is no effect, 100 is complete control
[24] = 31 g ai/ha, postemergence, visual rating, 13 to 15 days
[25] = 125 g ai/ha, postemergence, visual rating
[26] = Postemergence, 62 g ai/ha, 13 to 15 days

## N#Cc1cccc(Oc2ncc(Br)cn2)c1-n1cc(Br)cn1 [Compound 57]
[1]; [17]
  Plant response rating, Crabgrass, Large: 90
[1]; [18]
  Crabgrass, Large plant response rating: 100
[2]; [17]
  Plant response rating, Velvetleaf: 40
[2]; [18]
  Velvetleaf plant response rating: 100
[3]; [17]
  Plant response rating, Wheat: 0
[3]; [18]
  Wheat plant response rating: 50
[4]; [17]
  Plant response rating, Crabgrass, Large: 90
[4]; [19]
  Plant response rating, Crabgrass, Large: 100
[5]; [17]
  Plant response rating, Foxtail, Giant: 80
[5]; [19]
  Plant response rating, Foxtail, Giant: 100
[6]; [17]
  Plant response rating, Velvetleaf: 100
[6]; [19]
  Plant response rating, Velvetleaf: 100
[7]; [17]
  Plant response rating, Wheat: 0
[7]; [19]
  Plant response rating, Wheat: 30
[8]
  Plant response rating, Rice: 0
[9]
  Plant response rating, Ducksalad: 60
[10]; 125 g ai/ha, postemergence
  Plant response rating (0 to 100), Lambsquarters: 70
[10]; 250 g ai/ha, postemergence
  Plant response rating (0 to 100), Lambsquarters: 85
[10]; [20]
  Plant response rating, Lambsquarters: 70
[10]; Postemergence, 62 g ai/ha
  Plant response rating, Lambsquarters: 70
[11]; 125 g ai/ha, postemergence
  Plant response rating (0 to 100), Morningglory: 85
[11]; 250 g ai/ha, postemergence
  Plant response rating (0 to 100), Morningglory: 95
[11]; [20]
  Plant response rating, Morningglory: 45
[11]; Postemergence, 62 g ai/ha
  Plant response rating, Morningglory: 80
[12]; 250 g ai/ha, postemergence
  Plant response rating (0 to 100), Pigweed: 95
[12]; [20]
  Plant response rating, Pigweed: 65
[12]; Postemergence, 62 g ai/ha
  Plant response rating, Pigweed: 85
[13]; 125 g ai/ha, postemergence
  Plant response rating (0 to 100), Soybean: 95
[13]; 250 g ai/ha, postemergence
  Plant response rating (0 to 100), Soybean: 100
[13]; [20]
  Plant response rating, Soybean: 65
[13]; Postemergence, 62 g ai/ha
  Plant response rating, Soybean: 85
[14]; 125 g ai/ha, postemergence
  Plant response rating (0 to 100), Oilseed Rape: 80
[14]; 250 g ai/ha, postemergence
  Plant response rating (0 to 100), Oilseed Rape: 85
[14]; [20]
  Plant response rating, Oilseed Rape: 30
[14]; Postemergence, 62 g ai/ha
  Plant response rating, Oilseed Rape: 40
[15]; 125 g ai/ha, postemergence
  Plant response rating (0 to 100), Kochia: 90
[15]; 250 g ai/ha, postemergence
  Plant response rating (0 to 100), Kochia: 100
[15]; [20]
  Plant response rating, Kochia: 85
[15]; Postemergence, 62 g ai/ha
  Plant response rating, Kochia: 90
[16]; 125 g ai/ha, postemergence
  Plant response rating (0 to 100), Velvetleaf: 40
[16]; 250 g ai/ha, postemergence
  Plant response rating (0 to 100), Velvetleaf: 60
[16]; [20]
  Plant response rating, Velvetleaf: 25
[16]; Postemergence, 62 g ai/ha
  Plant response rating, Velvetleaf: 35

## Clc1cnc(Oc2cccc(Br)c2-n2cc(Cl)cn2)nc1 [Compound 221]
[1]; 125 g ai/ha
  Crabgrass, Large plant response rating (0 to 100 scale): 100
[1]; [21]
  Crabgrass, Large plant response rating: 100
[2]; 125 g ai/ha
  Velvetleaf plant response rating (0 to 100 scale): 10
[2]; [21]
  Velvetleaf plant response rating: 70
[3]; 125 g ai/ha
  Wheat plant response rating (0 to 100 scale): 0
[3]; [21]
  Wheat plant response rating: 10
[4]; [17]
  Crabgrass, Large plant response rating: 60
[4]; [22]
  Plant response rating, Crabgrass, Large: 100
[5]; [17]
  Foxtail, Giant plant response rating: 50
[5]; [22]
  Plant response rating, Foxtail, Giant: 90
[6]; [17]
  Velvetleaf plant response rating: 100
[6]; [22]
  Plant response rating, Velvetleaf: 100
[7]; [17]
  Wheat plant response rating: 0
[7]; [22]
  Plant response rating, Wheat: 30
[8]
  Plant response rating, Rice: 0
[9]
  Plant response rating, Ducksalad: 0
[10]; [23]
  Plant response rating (0 to 100), Lambsquarters: 15
[10]; [24]
  Lambsquarters plant response rating: 60
[10]; [25]
  Plant response rating, Lambsquarters: 65
[10]; [26]
  Plant response rating, Lambsquarters: 50
[11]; [23]
  Plant response rating (0 to 100), Morningglory: 45
[11]; [24]
  Morningglory plant response rating: 40
[11]; [25]
  Plant response rating, Morningglory: 55
[11]; [26]
  Plant response rating, Morningglory: 50
[12]; [23]
  Plant response rating (0 to 100), Pigweed: 60
[12]; [24]
  Pigweed plant response rating: 75
[12]; [25]
  Plant response rating, Pigweed: 85
[12]; [26]
  Plant response rating, Pigweed: 50
[13]; [23]
  Plant response rating (0 to 100), Soybean: 30
[13]; [24]
  Soybean plant response rating: 55
[13]; [25]
  Plant response rating, Soybean: 80
[13]; [26]
  Plant response rating, Soybean: 65
[14]; [23]
  Plant response rating (0 to 100), Oilseed Rape: 40
[14]; [24]
  Oilseed Rape plant response rating: 50
[14]; [25]
  Plant response rating, Oilseed Rape: 80
[14]; [26]
  Plant response rating, Oilseed Rape: 60
[15]; [23]
  Plant response rating (0 to 100), Kochia: 90
[15]; [24]
  Kochia plant response rating: 80
[15]; [25]
  Plant response rating, Kochia: 95
[15]; [26]
  Plant response rating, Kochia: 95
[16]; [23]
  Plant response rating (0 to 100), Velvetleaf: 35
[16]; [24]
  Velvetleaf plant response rating: 35
[16]; [25]
  Plant response rating, Velvetleaf: 75
[16]; [26]
  Plant response rating, Velvetleaf: 45

## Clc1cnc(Oc2cccc(Cl)c2-n2cc(Cl)cn2)nc1 [Compound 220]
[1]; 125 g ai/ha
  Crabgrass, Large plant response rating (0 to 100 scale): 100
[1]; [21]
  Crabgrass, Large plant response rating: 100
[2]; 125 g ai/ha
  Velvetleaf plant response rating (0 to 100 scale): 20
[2]; [21]
  Velvetleaf plant response rating: 70
[3]; 125 g ai/ha
  Wheat plant response rating (0 to 100 scale): 0
[3]; [21]
  Wheat plant response rating: 20
[4]; [17]
  Crabgrass, Large plant response rating: 100
[4]; [22]
  Plant response rating, Crabgrass, Large: 100
[5]; [17]
  Foxtail, Giant plant response rating: 80
[5]; [22]
  Plant response rating, Foxtail, Giant: 90
[6]; [17]
  Velvetleaf plant response rating: 100
[6]; [22]
  Plant response rating, Velvetleaf: 100
[7]; [17]
  Wheat plant response rating: 10
[7]; [22]
  Plant response rating, Wheat: 60
[8]
  Plant response rating, Rice: 0
[9]
  Plant response rating, Ducksalad: 100
[10]; [23]
  Plant response rating (0 to 100), Lambsquarters: 15
[10]; [24]
  Lambsquarters plant response rating: 50
[10]; [25]
  Plant response rating, Lambsquarters: 75
[10]; [26]
  Plant response rating, Lambsquarters: 55
[11]; [23]
  Plant response rating (0 to 100), Morningglory: 15
[11]; [24]
  Morningglory plant response rating: 50
[11]; [25]
  Plant response rating, Morningglory: 50
[11]; [26]
  Plant response rating, Morningglory: 40
[12]; [23]
  Plant response rating (0 to 100), Pigweed: 65
[12]; [24]
  Pigweed plant response rating: 75
[12]; [25]
  Plant response rating, Pigweed: 90
[12]; [26]
  Plant response rating, Pigweed: 85
[13]; [23]
  Plant response rating (0 to 100), Soybean: 40
[13]; [24]
  Soybean plant response rating: 65
[13]; [25]
  Plant response rating, Soybean: 95
[13]; [26]
  Plant response rating, Soybean: 60
[14]; [23]
  Plant response rating (0 to 100), Oilseed Rape: 50
[14]; [24]
  Oilseed Rape plant response rating: 65
[14]; [25]
  Plant response rating, Oilseed Rape: 90
[14]; [26]
  Plant response rating, Oilseed Rape: 85
[15]; [23]
  Plant response rating (0 to 100), Kochia: 90
[15]; [24]
  Kochia plant response rating: 90
[15]; [25]
  Plant response rating, Kochia: 95
[15]; [26]
  Plant response rating, Kochia: 95
[16]; [23]
  Plant response rating (0 to 100), Velvetleaf: 30
[16]; [24]
  Velvetleaf plant response rating: 50
[16]; [25]
  Plant response rating, Velvetleaf: 60
[16]; [26]
  Plant response rating, Velvetleaf: 65
